# Experimental data as given in patent publication US12410185B2, “Compounds targeting mutant calreticulin” (MYELOPRO DIAGNOSTICS AND RESEARCH GmbH, priority 2018, dated 2025).
# Assays:
# [1] = tested on: Ba/F3-MPL CALR del52/WT cells mixed with Ba/F3-MPL CALR WT cells; experiment: two-color competition assay, 12 days; assay type: cell-based, mouse; settings: in the presence of TPO, compared to DMSO control
# Procedure: (§1) FIG. 10: Competition assay of hematoxylin treatment in Ba/F3-MPL cells. Ba/F3-MPL CALR WT (GFP negative) and Ba/F3-MPL CALR del52/WT (GFP positive) cells were mixed and underwent hematoxylin treatment for 12 days. Drug and cytokine were refreshed every 3 days. Percentage of GFP positive cells were recorded by FACs.
# (§2) To determine long-term viability, a two-color competition assay was used. Cell lines were transduced with pMSCV-IRES-GFP/mCherry construct, and the fluorescence-positive cells were sorted by a SH800Z Cell Sorter (Sony). GFP/mCherry-positive cell lines were mixed with their non-fluorescent control cells in a 1:1 ratio and underwent compound treatment for 3-12 days. Compounds and cytokines were refreshed every 3 days. Cell samples were analyzed at each time point by a BD LSRFortessa™ cell analyzer (BD Biosciences).
# [2] = tested on: UT-7-TPO CALR del58/WT cells mixed with UT-7-TPO CALR WT cells; experiment: two-color competition assay, 12 days; assay type: cell-based; settings: in the presence of TPO
# Procedure: as §1, with “11:” for “10:”, “UT-7-TPO” for “Ba/F3-MPL”, “(mCherry” for “(GFP”, “del58/WT (mCherry” for “del52/WT (GFP”, “mCherry” for “GFP”
# as §2
# [3] = tested on: Ba/F3-MPL cell lines carrying C-terminal truncated CALR; experiment: cytotoxicity assay in cell lines with C-terminal truncated CALR; assay type: cell-based, mouse; settings: truncated CALR mutations vs disease frameshift
# Procedure: (§3) In order to further confirm the selective cytotoxicity of hematoxylin in CALR mutant cells, two-color competition assays were performed in both Ba/F3 and UT-7-TPO cells to assess the long-term efficacy of the compound (FIG. 9). […] The differential killing effect of hematoxylin could also be reproduced in the UT-7-TPO cell line. […] This reading frame encounters a stop codon shortly after the mutation and causes a truncation at the CALR C-terminus (FIG. 12). […] Moreover, CALR KO Ba/F3-MPL cell lines were tested for hematoxylin sensitivity.
# [4] = tested on: CALR KO Ba/F3-MPL cell lines; experiment: hematoxylin sensitivity of CALR knockout cell lines; assay type: cell-based, mouse; settings: CALR KO vs CALR WT clones
# Procedure: as §3
# [5] = tested on: Ba/F3-MPL CALR mutated cell line; experiment: apoptosis assay by Annexin V/PI staining; assay type: cell-based, mouse; settings: 20 uM, 24 h
# Procedure: (§4) Ba/F3-MPL CALR wild-type and mutant cell lines were treated with hematoxylin at 20 uM or the equivalent volume of DMSO for 24 h before collection. Annexin V Apoptosis Detection Kit (eBioscience, #88-8007-74) was used based on the manufacturer's instructions. 5 ul of Propidium Iodide Staining Solution (Invitrogen, #00-6990-50) was added to each sample for 10 min before being analyzed with the BD LSRFortessa™ cell analyzer without washing.
# [6] = tested on: Ba/F3-MPL CALR wild-type control; experiment: apoptosis assay by Annexin V/PI staining; assay type: cell-based, mouse; settings: 20 uM, 24 h
# Procedure: as §4
# mutant CALR protein = experiment: binding assay (data not shown)
# wild-type CALR protein = wild-type CALR protein (Homo sapiens, UniProt P27797); experiment: binding assay (data not shown)
# wild-type CALR protein, sequence (P27797 18-417): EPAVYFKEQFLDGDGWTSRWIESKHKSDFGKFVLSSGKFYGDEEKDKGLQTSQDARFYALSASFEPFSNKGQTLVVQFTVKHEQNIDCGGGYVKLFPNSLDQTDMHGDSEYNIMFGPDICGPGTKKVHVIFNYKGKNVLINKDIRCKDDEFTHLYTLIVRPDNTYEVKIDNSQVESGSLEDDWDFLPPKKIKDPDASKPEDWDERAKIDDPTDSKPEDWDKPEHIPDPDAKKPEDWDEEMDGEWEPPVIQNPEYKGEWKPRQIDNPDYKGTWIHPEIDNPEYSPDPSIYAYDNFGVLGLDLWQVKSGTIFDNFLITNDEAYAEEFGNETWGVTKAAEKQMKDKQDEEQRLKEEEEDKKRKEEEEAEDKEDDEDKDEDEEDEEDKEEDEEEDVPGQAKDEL
# [7] = tested on: hematoxylin-resistant Ba/F3-MPL CALR mutant cell lines; experiment: dose response test in hematoxylin-resistant cell lines; assay type: cell-based, mouse; settings: lines selected under 20 uM hematoxylin for 4 weeks
# Procedure: FIG. 21: Dose response of hematoxylin in Ba/F3-MPL resistant cell lines. Ba/F3-MPL CALR del79/WT and Ba/F3-MPL CALR del37/del37 were cultured with hematoxylin at a concentration of 20 uM for 4 weeks. CALR del79/WT resistant clone 1 and CALR del37/del37 resistant clone were cultured without cytokine. CALR del79/WT resistant clone 2 were cultured with 5% TPO.
# (§5) Ba/F3-MPL CALR del79/WT and CALR del37/del37 cell lines were cultured with 20 uM of hematoxylin with or without 5% TPO continuously for 4 weeks. The cells were passaged every 3 days and seeded at 0.5 million per well in 6-well plates with addition of fresh hematoxylin and cytokine.
# mutant calreticulin = experiment: Western blot analysis of hematoxylin-resistant clones; assay type: cell-based, mouse; settings: 24 h treatment
# Procedure: FIG. 22: Western blot analysis of hematoxylin resistant clones. All cells were treated for 24 h with hematoxylin before collection.
# as §5
# 2 million Ba/F3-MPL CALR WT or mutant cells were treated with hematoxylin or the equivalent volume of DMSO in a total volume of 15 ml of RPMI media in T75 flasks (Thermal Fisher Scientific). Cells were collected and washed with PBS before being lysed in whole cell lysis buffer containing 20 mM HEPES, 20% glycerol, 50 mM KCl, 400 mM NaCl, 1 mM EDTA, 1 mM DTT, 5 mM Na orthovanadate, 0.5% NP40, 0.1% Tween 20, supplemented with cOmplete™, Mini, EDTA-free Protease Inhibitor Cocktail (Sigma) and PhosSTOP™ (Sigma). Samples were rotated at 4° C. for 20 min prior to centrifugation at […] for 20 min. The soluble fraction of the sample was collected. Protein concentration was quantified by the Bio-Rad Protein Assay (Bio-Rad) according to the manufacturer's instructions and measured by a SpectraMax Microplate Reader (Molecular Devices). […] Mutant calreticulin was detected by a polyclonal rabbit antibody against the mutant specific C-terminal peptide (Myelopro). […]
# [8] = tested on: CD34+ cells from CALR mutated patients; experiment: colony formation assay; assay type: cell-based, human; settings: 40 uM hematoxylin vs DMSO
# Source text: CD34-positive cells from healthy controls and CALR mutant patients were isolated by EasySep™ Human CD34 Positive Selection Kit (#18056; [sequence] Technologies) according to the manufacturer's instructions. StemSpan™ SFEM II (#09655 or #17856; [sequence] Technologies) supplemented with 1× StemSpan™ CD34+ Expansion Supplement (#02691; [sequence] Technologies) was used to culture and expand the isolated CD34-positive cells, preferably for no more than 8 days before experiments or storage. 1000 human CD34-positive cells were plated in 1 ml of Methocult classic medium ([sequence] Technologies, #H4434) with 40 uM hematoxylin or DMSO control. Cells were incubated for 14 days before colony counting. Statistical test was calculated using two-way ANOVA with Sidak's multiple comparisons test.
smiles,measurement,setting,value
"Oc1cc2c(cc1O)[C@@H]1c3ccc(O)c(O)c3OC[C@]1(O)C2 [hematoxylin, Hematoxylin]",depletion of CALR mutant cells in co-cultivation with CALR WT cells,[1],almost completely depleted
same,outgrowth of mutant cells from the cell population,[2],inhibited the outgrowth of the mutant cells
same,hypersensitivity towards compound treatment,[3],did not show hypersensitivity
same,hypersensitivity towards the treatment,[4],did not show hypersensitivity
same,apoptotic cell numbers,[5],significant elevation of apoptotic cell numbers
same,apoptotic cell numbers,[6],not in the wild-type control
same,binding to mutant CALR protein,mutant CALR protein,bound
same,binding to wild-type CALR protein,wild-type CALR protein,bound
same,viability of resistant cell lines in response to the treatment,[7],Increased viability
same,compound-induced down-regulation of mutant calreticulin in resistant cell lines,mutant calreticulin,resistance towards the compound-induced down-regulation
same,number of colony forming units,[8],significantly reduced
